In patent publication US4336257A, “Novel 2-pyridylbenzimidazole compounds” (Merck & Co., Inc., priority 1980, dated 1982):
Like-named read-outs stand apart in the source and are kept apart here.

How the values were obtained:
[1] = target: T1, xanthine oxidase (Bos taurus, UniProt P80457); test: in vitro xanthine oxidase (X.O.) inhibition; format: biochemical
Procedure: (§1) The xanthine oxidase activity of representative compounds was determined using an in vitro test--the antihypertensive activity was determined by administration of said compounds to a spontaneously hypertensive (SH) or renal hypertensive (RH) rat. The X.O. inhibition is expressed as % inhibition of the enzyme at a present compound concentration of 2×10^-5 M. | .circle.* using in vitro test as described in J. Med. Chem. 20,

[2] = test system: spontaneously hypertensive (SH) rat; test: antihypertensive activity in spontaneously hypertensive (SH) rat; format: in vivo; conditions: SH rat (footnote 1)
Procedure: as §1, with “M.” for “M. | .circle.* using in vitro test as described in J. Med. Chem. 20,”

[3] = test system: spontaneously hypertensive (SH) or renal hypertensive (RH) rat; test: antihypertensive activity in spontaneously hypertensive (SH) or renal hypertensive (RH) rat, model not specified; format: in vivo; conditions: model not marked
Procedure: as §1, with “M.” for “M. | .circle.* using in vitro test as described in J. Med. Chem. 20,”

[4] = test system: renal hypertensive (RH) rat; test: antihypertensive activity in renal hypertensive (RH) rat; format: in vivo; conditions: RH rat (footnote 2)
Procedure: as §1, with “M.” for “M. | .circle.* using in vitro test as described in J. Med. Chem. 20,”

[5] = target: T1, xanthine oxidase; test: in vitro xanthine oxidase (X.O.) inhibition; format: biochemical; conditions: Table 2; amount 1.5 × 10^-5 m; read-out: X.O.I.
[6] = Table 1, compound concentration 2×10^-5 M, read-out: % X.O. Inhibition
[7] = Table 2, amount 2 × 10^-5 M, read-out: X.O.I.

T1 sequence (P80457 whole entry): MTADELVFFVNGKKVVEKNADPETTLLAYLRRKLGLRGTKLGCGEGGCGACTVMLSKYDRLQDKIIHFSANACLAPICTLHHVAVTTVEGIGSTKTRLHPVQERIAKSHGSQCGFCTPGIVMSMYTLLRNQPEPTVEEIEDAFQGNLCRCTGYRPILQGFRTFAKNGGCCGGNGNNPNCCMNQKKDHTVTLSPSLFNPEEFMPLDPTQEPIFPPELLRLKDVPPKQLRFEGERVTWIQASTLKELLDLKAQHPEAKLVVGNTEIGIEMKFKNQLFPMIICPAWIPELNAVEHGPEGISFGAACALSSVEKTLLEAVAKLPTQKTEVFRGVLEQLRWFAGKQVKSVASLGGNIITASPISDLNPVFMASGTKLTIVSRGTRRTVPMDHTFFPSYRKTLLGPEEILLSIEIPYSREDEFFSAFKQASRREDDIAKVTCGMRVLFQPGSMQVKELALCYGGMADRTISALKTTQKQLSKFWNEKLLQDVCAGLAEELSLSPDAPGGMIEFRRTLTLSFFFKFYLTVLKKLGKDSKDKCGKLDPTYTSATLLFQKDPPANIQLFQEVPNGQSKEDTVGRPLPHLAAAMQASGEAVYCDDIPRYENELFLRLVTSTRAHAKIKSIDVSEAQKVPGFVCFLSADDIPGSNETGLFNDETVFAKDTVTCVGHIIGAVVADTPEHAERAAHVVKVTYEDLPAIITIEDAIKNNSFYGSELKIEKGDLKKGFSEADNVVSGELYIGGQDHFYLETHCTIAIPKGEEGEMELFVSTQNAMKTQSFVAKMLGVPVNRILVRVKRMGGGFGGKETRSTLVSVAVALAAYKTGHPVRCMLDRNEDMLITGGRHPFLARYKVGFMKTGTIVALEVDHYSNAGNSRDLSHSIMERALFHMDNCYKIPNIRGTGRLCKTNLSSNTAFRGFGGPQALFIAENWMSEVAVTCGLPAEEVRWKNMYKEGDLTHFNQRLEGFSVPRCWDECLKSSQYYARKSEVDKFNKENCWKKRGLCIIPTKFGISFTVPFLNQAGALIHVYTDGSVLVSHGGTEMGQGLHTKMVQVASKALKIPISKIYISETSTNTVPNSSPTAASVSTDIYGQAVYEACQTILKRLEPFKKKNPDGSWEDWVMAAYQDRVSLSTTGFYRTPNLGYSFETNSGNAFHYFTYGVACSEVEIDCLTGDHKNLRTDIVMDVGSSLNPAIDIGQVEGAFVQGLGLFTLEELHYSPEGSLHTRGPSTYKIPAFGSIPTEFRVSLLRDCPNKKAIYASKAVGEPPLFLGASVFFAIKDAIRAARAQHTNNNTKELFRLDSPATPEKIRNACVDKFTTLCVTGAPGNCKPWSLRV

| inhibition at 20 µM [1, 6] [%] | Structure (SMILES) | A.H. Activity [2] | further results |
| --- | --- | --- | --- |
| 8 | c1cnc2[nH]c(-c3ccncc3)nc2c1 | yes |  |
| 5 | c1cncc(-c2nc3cccnc3[nH]2)c1 | yes |  |
| 62 | c1cc(-c2nc3cnccc3[nH]2)ccn1 | yes |  |
| 23 | c1cncc(-c2nc3cnccc3[nH]2)c1 |  | A.H. Activity [3]: no |

Further lines, the compound ahead of its results:

| Structure (SMILES) | inhibition at 20 µM [1, 6] [%] | A.H. Activity [2] | further results |
| --- | --- | --- | --- |
| Cc1cnc(-c2ccncc2)[nH]1 | 4 | yes |  |
| Cc1cnc(-c2cccnc2)[nH]1 | 0 | yes |  |
| Clc1ccc2[nH]c(-c3cccnc3)nc2c1 |  |  | inhibition at 20 µM [1, 7]: 0% |
| Clc1ccc2[nH]c(-c3ccncc3)nc2c1 [drawing 6] | 11 |  | A.H. Activity [4]: yes |
| Clc1cc2nc(-c3ccncc3)[nH]c2cc1Cl [drawing 7] | 56 |  | A.H. Activity [3]: no |
| Clc1ccc2[nH]c(-c3ccncc3)nc2c1 [drawing 13] |  |  | inhibition at 20 µM [1, 7]: 11% |
| Clc1cc2nc(-c3ccncc3)[nH]c2cc1Cl [drawing 14] |  |  | inhibition at 15 µM [5]: 50% |
